Experimental findings from US20260158009A1 (GENZYME CORPORATION, priority 2023, published 2026) are described below.

Test [1] addresses T1, hRIPK1 (aa 1-375) fusion protein (Homo sapiens, UniProt Q13546).
T1 construct: hRIPK1 (aa 1-375) fusion protein
T1 sequence (Q13546 1-375): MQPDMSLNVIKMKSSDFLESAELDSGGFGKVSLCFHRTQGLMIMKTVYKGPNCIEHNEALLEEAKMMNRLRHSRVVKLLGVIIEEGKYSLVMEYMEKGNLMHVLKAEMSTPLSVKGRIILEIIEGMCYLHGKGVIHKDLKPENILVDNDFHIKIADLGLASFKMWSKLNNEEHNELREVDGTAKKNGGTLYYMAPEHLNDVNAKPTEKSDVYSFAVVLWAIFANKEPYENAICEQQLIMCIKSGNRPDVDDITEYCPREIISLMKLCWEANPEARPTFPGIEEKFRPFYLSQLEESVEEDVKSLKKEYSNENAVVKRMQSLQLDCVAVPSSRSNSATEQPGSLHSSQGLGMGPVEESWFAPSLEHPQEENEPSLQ
Description: ADP-Glo kinase assay: catalytic activity of RIPK1 (autophosphorylation, conversion of ATP to ADP). Type of test: biochemical. The procedure, abridged: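 hRIPK1 (aa 1-375) fusion protein (3.6 μg/ml final) was preincubated 30 min at rt with compound (33300-1.69 nM, 1% DMSO), then 50 μM ATP was added for 240 min at rt. ADP from autophosphorylation was measured by ADP-Glo luminescence and curves fitted by nonlinear regression.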

For test [2], the system named is U937 cells. Description: Cellular assay in U937 cells: activity of RIPK1 inhibitors on TNFα/zVAD.fmk-induced cell death (necroptosis), CellTiter 96 AQueous (MTS) readout. Type of test: cell-based. The conditions noted are these: Homo sapiens, U-937. The method in brief: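 Necroptosis was measured by viable-cell MTS reduction (4 h, absorbance 490 nm) after overnight (18–24 h) 37° C culture. Cell suspensions of U937 cells carried TNFα (100 ng/ml) plus zVAD.fmk (50 μM) before compound was added. A 10-point curve (10 μM–0.26 nM or 1 μM–0.07 nM) was run in duplicate, normalised to the control lacking TNFα/zVAD.fmk.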

As for `Cc1nc2ccc(C[C@H]3CC[C@H](C(=O)N4OCC[C@H]4c4cnccn4)CC3)cn2n1` [compound 222, trans-[4-[(2-methyl-[1,2,4]triazolo[1,5-a]pyridin-6-yl)methyl]cyclohexyl]-[(3S)-3-pyrazin-2-ylisoxazolidin-2-yl]methanone], the IC50 is 37 nM in test [1] and 48 nM in test [2].
The corresponding values for `N#Cc1cncc([C@@H]2CCON2C(=O)[C@H]2CC[C@H](Cc3ccc(C4(O)COC4)cc3)CC2)c1` [compound 183, trans-5-[(3S)-2-[4-[[4-(3-hydroxyoxetan-3-yl)phenyl]methyl]cyclohexanecarbonyl]isoxazolidin-3-yl]pyridine-3-carbonitrile] are 45 nM and 23 nM.
The corresponding values for `Cc1ccc(C[C@H]2CC[C@H](C(=O)N3OCC[C@H]3c3cc(F)cc(C#N)c3)CC2)cc1C#N` [compound 109, trans-5-((4-((S)-3-(3-cyano-5-fluorophenyl)isoxazolidine-2-carbonyl)cyclohexyl)methyl)-2-methylbenzonitrile] are 19 nM and 1 nM.
For the compound `N#Cc1cc(F)cc([C@@H]2CCON2C(=O)[C@H]2CC[C@H](Cn3cnc4ccccc43)CC2)c1` [compound 7, trans-3-((S)-2-(4-((1H-benzo[d]imidazol-1-yl)methyl)cyclohexane-1-carbonyl)isoxazolidin-3-yl)-5-fluorobenzonitrile], the IC50 worked out at 15 nM in test [1] and 9 nM in test [2].
As for `Cc1ccc(CC23CCC(C(=O)N4OCC[C@H]4c4cc(F)cc(C#N)c4)(CC2)CC3)cc1C(N)=O` [compound 274, 5-[[4-[(3S)-3-(3-cyano-5-fluoro-phenyl)isoxazolidine-2-carbonyl]-1-bicyclo[2.2.2]octanyl]methyl]-2-methyl-benzamide], the results for the IC50 in test [1] and in test [2] were 9 nM and 40 nM, respectively.
With `Cc1nc2c(F)cc(C[C@H]3CC[C@H](C(=O)N4OCC[C@H]4c4cnccn4)CC3)cn2n1` [compound 340, trans-[4-[(8-fluoro-2-methyl-[1,2,4]triazolo[1,5-a]pyridin-6-yl)methyl]cyclohexyl]-[(3S)-3-pyrazin-2-yl-1,2-oxazolidin-2-yl]methanone], the results for the IC50 in test [1] and in test [2] were 25 nM and 77 nM, respectively.
On to `Cc1cn2cc(C[C@H]3CC[C@H](C(=O)N4OCC[C@H]4c4csc(C)n4)CC3)cc(F)c2n1` [compound 370, trans-[4-(8-Fluoro-2-methyl-imidazo[1,2-a]pyridin-6-ylmethyl)-cyclohexyl]-[(S)-3-(2-methyl-thiazol-4-yl)-isoxazolidin-2-yl]-methanone], for which the values for the IC50 in test [1] and in test [2] were 34 nM and 21 nM, respectively.
In the same order, the values of `Cc1ncc(F)cc1C[C@H]1CC[C@H](C(=O)N2OCC[C@H]2c2cncc(C#N)c2)CC1` [compound 197, trans-5-[(3S)-2-[4-[(5-fluoro-2-methyl-3-pyridyl)methyl]cyclohexanecarbonyl]isoxazolidin-3-yl]pyridine-3-carbonitrile] are 24 nM and 4 nM.
In the same order, the values of `Cc1cncc([C@@H]2CCON2C(=O)[C@H]2CC[C@H](Cc3cc(C)c4nc(C)nn4c3)CC2)c1` [compound 378, trans-[4-[(2,8-dimethyl-[1,2,4]triazolo[1,5-a]pyridin-6-yl)methyl]cyclohexyl]-[(3S)-3-(5-methylpyridin-3-yl)-1,2-oxazolidin-2-yl]methanone] are 59 nM and 95 nM.
In the case of `O=C([C@H]1CC[C@H](Cn2ncc3cc(F)ccc32)CC1)N1OCC[C@H]1c1cc(F)cc(F)c1` [compound 55, trans-((S)-3-(3,5-difluorophenyl)isoxazolidin-2-yl)(4-((5-fluoro-1H-indazol-1-yl)methyl)cyclohexyl)methanone], the IC50 in test [1] came to 21 nM; in test [2] it was 3 nM.
On to `Cc1cnc([C@@H]2CCON2C(=O)[C@H]2CC[C@H](Cc3cc(C)c4nc(C)nn4c3)CC2)cn1` [compound 328, trans-[4-[(2,8-dimethyl-[1,2,4]triazolo[1,5-a]pyridin-6-yl)methyl]cyclohexyl]-[(3S)-3-(5-methylpyrazin-2-yl)isoxazolidin-2-yl]methanone; 2,2,2-trifluoroacetic], for which the values for the IC50 in test [1] and in test [2] were 47 nM and 82 nM, respectively.
For the compound `N#Cc1cc(F)cc([C@@H]2CCON2C(=O)[C@H]2CC[C@H](Cn3ccc4ncc(Cl)cc43)CC2)c1` [compound 19, trans-3-((S)-2-(4-((6-chloro-1H-pyrrolo[3,2-b]pyridin-1-yl)methyl)cyclohexane-1-carbonyl)isoxazolidin-3-yl)-5-fluorobenzonitrile], the IC50 in test [1] stood at 28 nM; in test [2] it was 5 nM.
Regarding `N#Cc1cc(C[C@H]2CC[C@H](C(=O)N3OCC[C@H]3c3ccc(F)cc3)CC2)ccc1F` [compound 242, trans-2-fluoro-5-[[4-[(3S)-3-(4-fluorophenyl)isoxazolidine-2-carbonyl]cyclohexyl]methyl]benzonitrile], the IC50 in test [1] was 21 nM; in test [2] it was 16 nM.
The corresponding values for `Cc1nn(C[C@H]2CC[C@H](C(=O)N3OCC[C@H]3c3cc(F)cc(C#N)c3)CC2)c2cc(C(N)=O)cc(F)c12` [compound 102, trans-1-((4-((S)-3-(3-cyano-5-fluorophenyl)isoxazolidine-2-carbonyl)cyclohexyl)methyl)-4-fluoro-3-methyl-1H-indazole-6-carboxamide] are 23 nM and 37 nM.
With `CNC(=O)c1cc(F)cc(C[C@H]2CC[C@H](C(=O)N3OCC[C@H]3c3cncc(C#N)c3)CC2)c1` [compound 163, trans-3-[[4-[(3S)-3-(5-cyano-3-pyridyl)isoxazolidine-2-carbonyl]cyclohexyl]methyl]-5-fluoro-N-methyl-benzamide], the IC50 amounted to 5 nM in test [1] and 10 nM in test [2].
As to `Cc1cc(C[C@H]2CC[C@H](C(=O)N3OCC[C@H]3c3cnc(C)c(F)c3)CC2)c(C)cn1` [compound 332, trans-[4-[(2,5-dimethylpyridin-4-yl)methyl]cyclohexyl]-[(3S)-3-(5-fluoro-6-methylpyridin-3-yl)-1,2-oxazolidin-2-yl]methanone], the IC50 came to 12 nM in test [1] and 3 nM in test [2].
For the compound `N#Cc1cncc([C@@H]2CCON2C(=O)[C@H]2CC[C@H](Cn3cnc4cc(C#N)c(F)cc43)CC2)c1` [compound 65, trans-1-((4-((S)-3-(5-cyanopyridin-3-yl)isoxazolidine-2-carbonyl)cyclohexyl)methyl)-6-fluoro-1H-benzo[d]imidazole-5-carbonitrile], the IC50 was determined as 51 nM in test [1] and 164 nM in test [2].
As for `Cc1ncc([C@@H]2CCON2C(=O)[C@H]2CC[C@H](Cc3ccnn3C)CC2)cc1F` [compound 404, trans-[(3S)-3-(5-fluoro-6-methylpyridin-3-yl)-1,2-oxazolidin-2-yl]-[4-[(2-methylpyrazol-3-yl)methyl]cyclohexyl]methanone], the IC50 in test [1] came out at 15 nM; in test [2], 22 nM.
As to `NC(=O)c1cc(F)c2ncn(C[C@H]3CC[C@H](C(=O)N4OCC[C@H]4c4cc(F)cc(F)c4)CC3)c2c1` [compound 81, trans-1-((4-((S)-3-(3,5-difluorophenyl)isoxazolidine-2-carbonyl)cyclohexyl)methyl)-4-fluoro-1H-benzo[d]imidazole-6-carboxamide], the IC50 turned out to be 33 nM in test [1] and 166 nM in test [2].
